According to patent US10588316B2 (priority 2015, dated 2020):
Converted amounts (≈) assume the structure as drawn. Where two headings read alike, the source gives them in different places.

Legend:
[1] = tested on: Fusarium graminearum; test: microbe, parasite or virus in culture; assay type: cell-based; conditions: Fusarium graminearum, read-out: Median Effective Concentration (EC50) for Growth Inhibition
[2] = tested on: wheat scab; assay type: in vivo; conditions: 80 g of 50% of Carbendazim Wettable Powder
[3] = tested on: Fusarium asiaticum; test: microbe, parasite or virus in culture; assay type: cell-based; conditions: Fusarium asiaticum, read-out: Median Effective Concentration (EC50) for Growth Inhibition
[4] = set-up: species or system wheat; conditions: in vivo
[5] = tested on: wheat scab; assay type: in vivo; conditions: Carbendazim 40 g a.i. per mu, control agent
[6] = tested on: wheat scab; assay type: in vivo; conditions: Carbendazim 50 g a.i.
[7] = tested on: wheat scab; assay type: in vivo; conditions: Carbendazim 40 g a.i. per mu
[8] = tested on: leaf blight; set-up: species or system wheat; conditions: in vivo
[9] = tested on: rust; set-up: species or system wheat; conditions: in vivo

COC(=O)Nc1nc2ccccc2[nH]1 [Carbendazim, carbendazim]
EC50 [1]: 0.45 µg/mL (≈ 2.35 µM)
Disease Index Prevention Effect % Head Blight [2]: 64.6%
EC50 [3]: 0.45 µg/mL (≈ 2.35 µM)
Thousand Kernel Weight [4]: 41.60 g
Disease Index Prevention Effect % Actual Prevention Effect [5]: 67.5%
Disease Index Prevention Effect % Head Blight [6]: 49.04%
Disease Index Prevention Effect % Head Blight [7]: 38.60%
Disease Index Prevention Effect % Leaf Blight [8]: 48.50%
Disease Index Prevention Effect % Rust [9]: 61.20%
